Results taken from patent US20260265279A1, “RHO-ASSOCIATED PROTEIN KINASE INHIBITOR AND PREPARATION AND USE THEREOF” (Shanghai Zhimeng Biopharma, Inc, priority 2022, published 2026).

Key:
ROCK2 = target: T1, ROCK2 (Homo sapiens, UniProt O75116); test: Kinase IC50 assay, HTRF kinEASE STK S2 kit, ROCK2; type: biochemical; conditions: ATP 1 μM, 2.5 ng/well enzyme, 120 min
T1 construct: purchased Invitrogen PV3759
Procedure: (§1) Kinase IC50 assay was performed using the kinase assay kit HTRF kinEASE STK S2 kit (Cat #62ST2PEC, Cisbio). Kinases ROCK1 (Cat #PV3691) and ROCK2 (Cat #PV3759) were purchased from Invitrogen.
(§2) The working solution required for the assay was prepared with the appropriate reagents as described in the kinase assay kit instructions:
(§3) 1 mL of 1× Kinase Buffer contains 200 μL 5× Enzyme buffer, 5 μL 1M MgCl2 (Cat.M8266, Sigma), 1 μL 1M DTT (Cat.D5545, Sigma), 794 μL ddH2O.
(§4) The specific concentrations of STK-biotin substrate and ATP are shown in Table A. STK-biotin substrate and ATP were diluted with 1× kinase buffer to 2.5 times of the reaction concentration.
(§5) Concentrations of ROCK1/ROCK2 are shown in Table A. 5×ROCK1/ROCK2 Kinase working solution was prepared with 1× Kinase Buffer.
(§6) See Table A for the concentrations of Streptavidin-XL665 and STK Antibody-Cryptate in the reaction. 2× Streptavidin-XL665 and STK Antibody-Cryptate Working Solutions were prepared 5 minutes prior to the end of the kinase reaction using Detection Buffer from the kit.
(§7) A 100 μM compound mother solution was prepared using 1× kinase buffer containing 2.5% DMSO, and the mother solution was diluted 4-fold stepwise with the above DMSO-containing kinase buffer to obtain nine different concentrations of the compound solutions to be tested. In addition to the test compound wells, positive control wells (containing all reagents except the compounds) and negative control wells (containing all reagents except the compounds and kinase) were set up. 4 μL of the test compound solution was added to all reaction wells except the control wells and 4 μL of 2.5% DMSO solution was added to the control wells. Then 4 μL of previously prepared substrate and ATP working solution were added to all wells and mix well. Then, 2 μL/well of 5×ROCK1/ROCK2 kinase working solution (containing 2.5 ng ROCK1/ROCK2 kinase) was added to all reaction wells except negative control wells, and the negative control wells were made up to volume with 2 μL of 1× kinase buffer. Mix well, seal with plastic film and incubate at room temperature for 2 hours. Start preparing the assay solution 5 minutes before the end of the kinase reaction. After the end of the kinase reaction, 10 μL of prepared Streptavidin-XL665 and STK Antibody-Cryptate working solution were added to all reaction wells, the plates were sealed and mixed well, and then incubated at room temperature for 1 hour. Finally, the fluorescence signal was detected by SpectraMax i3x Multi-Mode Reader (Molecular Devices) (excitation wavelength is 320 nm, emission wavelength is 665 nm and 615 nm).
(§8) The inhibition rate in each well was calculated from the fluorescence intensity values of each well:
(§9) ER Emission Ratio, Emission light ratio=fluorescence intensity at 665 nm/fluorescence intensity at 615 nm;
(§10) ERcompound, ER of test compound wells; ERvehicle, ER of solvent (positive) control wells, ERblank, ER of blank (negative) control wells.
(§11) The graphs were plotted using the software GraphPad Prism 6.0, while the half inhibitory concentration (IC50) of each compound to be tested was obtained by fitting with Prism 6.0.

ROCK1 = target: T2, ROCK1 (Homo sapiens, UniProt Q13464); test: Kinase IC50 assay, HTRF kinEASE STK S2 kit, ROCK1; type: biochemical; conditions: ATP 1.5 μM, 2.5 ng/well enzyme, 120 min
T2 construct: purchased Invitrogen PV3691
T2 sequence (Q13464 1-535 limits assumed): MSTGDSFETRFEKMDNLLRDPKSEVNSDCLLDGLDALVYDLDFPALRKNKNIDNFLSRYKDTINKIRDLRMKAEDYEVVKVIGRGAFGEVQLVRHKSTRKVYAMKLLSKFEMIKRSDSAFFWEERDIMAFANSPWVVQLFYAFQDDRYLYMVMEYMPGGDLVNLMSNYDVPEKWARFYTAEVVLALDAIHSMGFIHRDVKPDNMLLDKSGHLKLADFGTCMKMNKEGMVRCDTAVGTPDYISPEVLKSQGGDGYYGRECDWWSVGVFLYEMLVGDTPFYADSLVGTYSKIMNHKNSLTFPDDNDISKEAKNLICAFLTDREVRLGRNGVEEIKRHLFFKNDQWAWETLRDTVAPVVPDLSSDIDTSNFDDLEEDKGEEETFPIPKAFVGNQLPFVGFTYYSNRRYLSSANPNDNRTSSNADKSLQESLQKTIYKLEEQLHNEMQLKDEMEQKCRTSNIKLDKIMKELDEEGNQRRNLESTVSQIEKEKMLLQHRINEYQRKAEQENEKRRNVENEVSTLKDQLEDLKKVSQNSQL
Procedure: as §1, §2, §3, §4, §5, §6, §7, §8, §9, §10, §11

[1] = Pharmacokinetic study in male SD rats; type: in vivo; conditions: rat, plasma
Procedure: 1) Purpose of the Study: Obtain the Pharmacokinetic Characterization of the Compounds of the Present Invention in Male SD Rats
For each compound, 6 healthy male SD rats (weight range 200-250 g) was taken and divided into 2 groups of 3 each; Group 1 was administered intravenously in a single dose (see Table 2 for dosage) and Group 2 was administered orally in a single gavage (see Table 2 for dosage, fasted overnight before administration). Blood was collected by jugular vein or cardiac puncture at 0.083 (group 1 only), 0.25, 0.5, 1, 2, 4, 6 (group 2 only), 8 and 24 h after drug administration, respectively, and at least 0.2 mL of whole blood was collected from each sample into EDTA-K2 anticoagulant tubes, and the samples were mixed and placed on wet ice after sample collection, and then centrifuged to separate plasma (6,800 g, 6 min, 2-8° C.) at 1 h. The plasma samples were stored in ultra-low temperature refrigerators before analysis.
Experimental results: The pharmacokinetic parameters after administration were calculated from the blood concentration data obtained by LC-MS/MS assay using the non-compartmental model of WinNonlin® 7.0 software (Pharsight, Inc., USA) and are shown in the table below: […]

[2] = po, gavage 10 mg/kg, fasted overnight

T1 sequence (O75116 5-554 limits assumed): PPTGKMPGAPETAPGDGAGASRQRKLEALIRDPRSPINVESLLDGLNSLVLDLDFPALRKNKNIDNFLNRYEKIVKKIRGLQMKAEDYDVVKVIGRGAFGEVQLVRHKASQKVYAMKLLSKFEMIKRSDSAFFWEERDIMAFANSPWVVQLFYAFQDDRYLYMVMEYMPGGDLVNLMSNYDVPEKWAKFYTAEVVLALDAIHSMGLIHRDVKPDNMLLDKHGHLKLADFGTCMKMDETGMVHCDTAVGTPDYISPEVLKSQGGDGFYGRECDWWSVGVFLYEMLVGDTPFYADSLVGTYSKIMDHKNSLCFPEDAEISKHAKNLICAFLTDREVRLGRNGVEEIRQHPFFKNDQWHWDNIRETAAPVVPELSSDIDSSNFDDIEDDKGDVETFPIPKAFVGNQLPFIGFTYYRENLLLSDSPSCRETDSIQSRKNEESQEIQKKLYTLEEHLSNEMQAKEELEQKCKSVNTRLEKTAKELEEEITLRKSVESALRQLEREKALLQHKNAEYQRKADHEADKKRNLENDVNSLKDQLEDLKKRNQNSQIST

SMILES: Cn1c(C#Cc2nccc(Nc3ccc(-c4cn[nH]c4)cc3)n2)ccc1C(=O)N1CC(F)(F)C1 [Compound A1]
- IC50 (ROCK2): 0.104 µM
- IC50 (ROCK1): > 100 µM
- AUC(0-t) ([1]; intravenous injection 1 mg/kg): 1210 ng·h/mL
- Cmax ([1]; intravenous injection 1 mg/kg): 765 ng/mL
- Tmax ([1]; intravenous injection 1 mg/kg): 0.08 h
- half-life ([1]; intravenous injection 1 mg/kg): 2.05 h
- bioavailability ([1]; oral, gavage 10 mg/kg vs intravenous 1 mg/kg): 11.5%
- AUC(0-t) [1, 2]: 1400 ng·h/mL
- Cmax [1, 2]: 251 ng/mL
- Tmax [1, 2]: 1.33 h
- half-life [1, 2]: 3.47 h
